Source: patent US5668150A, “Non-symmetrical bis-heteroarylmethoxyphenylalkyl carboxylates as inhibitors of leukotriene biosynthesis” (Abbott Laboratories, priority 1996, dated 1997)
Structures can show the parent of a compound that is named as a salt. Where two headings read alike, the source gives them in different places.

Tested on: 5-Lipoxygenase
Experiment: Inhibition of leukotriene biosynthesis in vitro: calcium ionophore-induced LTB4 formation in human polymorphonuclear leukocytes (PMNL)
Format: cell-based
Details: calcium ionophore 8.3 μM, 15 min preincubation, 37 °C; for % I, In Vitro Inhibitory Potencies Against 5-Lipoxygenase from Stimulated LTB4 Formation in Human Polymorphonuclear Leukocytes: @ 0.10 μM; for IC50: read-out: IC50, In Vitro Inhibitory Potencies Against 5-Lipoxygenase from Stimulated LTB4 Formation in Human Polymorphonuclear Leukocytes
Protocol: Inhibition of leukotriene biosynthesis was evaluated in vitro using an assay involving calcium ionophore-induced LTB4 expressed in human (PMNL). Human PMNL isolated from heparinized (20 USP units/mL) venous blood (25 mL) obtained from healthy volunteers was layered over an equal volume of Ficoll-Hypaque Mono-Poly Resolving Medium (ICN Flow, Costa Mesa, Calif.) and centrifuged at 400×g for 40 min at 20° C. The PMNL was collected, erythrocytes lysed and washed 2× and suspended at 1.0×10^7 cells/mL in Earle's balanced salt solution with 17 mM Earle's HEPES. Aliquots of the cell suspension were preincubated with test compounds dissolved in DMSO (final concentration <2%) for 15 min. and stimulated with calcium ionophore (final concentration 8.3 μM) for 10 min. at 37 ° C. Incubations were stopped with the addition of two volumes of ice-cold methanol followed by centrifuging the cell suspensions at 4° C. for 10 rain at 450×g. The mount of LTB4 in the methanol extract was analyzed by enzyme-linked immunoassay or by HPLC analysis.

Row | SMILES | IC50 (sodium salt) [nM] | % I, In Vitro Inhibitory Potencies Against 5-Lipoxygenase from Stimulated LTB4 Formation in Human Polymorphonuclear Leukocytes [%] | also measured
1 | CC(CCC(=O)O)(c1ccc(OCc2ccc3ccccc3n2)cc1)c1ccc(OCc2nc3ccccc3s2)cc1 (centres unmarked) [Example 1, 4-(4-(2-benzothiazolylmethoxy)phenyl)-4-(4-(2-quinolylmethoxy)phenyl)pentanoic acid] |  | 95 | 
2 | CC(CCC(=O)O)(c1ccc(OCc2ccc3ccccc3n2)cc1)c1ccc(OCc2nc3ccccc3s2)cc1 (centres unmarked) [Example 2, 4-(4-(2-benzothiazolylmethoxy)phenyl)-4-(4-(2-quinolylmethoxy)phenyl)pentanoic acid sodium salt] |  |  | IC50: 52 nM
3 | CC(CCC(=O)O)(c1ccc(OCc2ccc3ccccc3c2)cc1)c1ccc(OCc2ccc3ccccc3n2)cc1 (centres unmarked) [Example 3, 4-(4-(2-naphthylmethoxy)phenyl)-4-(4-(2-quinolylmethoxy)phenyl)pentanoic acid] |  | 93 | 

Continued, in another order:

Row | IC50 (sodium salt) [nM] | SMILES | % I, In Vitro Inhibitory Potencies Against 5-Lipoxygenase from Stimulated LTB4 Formation in Human Polymorphonuclear Leukocytes [%] | also measured
4 | 80 | Cn1c(COc2ccc(C(C)(CCC(=O)O)c3ccc(OCc4ccc5ccccc5n4)cc3)cc2)nc2ccccc21 (centres unmarked) [Example 5, 4-(4-(2-(1-methyl)benzimidazolylmethoxy)phenyl)-4-(4-(2-quinolylmethoxy)phenyl)pentanoic acid sodium salt] |  | 
5 | 90 | Cn1c(COc2ccc(C(C)(CCC(=O)O)c3ccc(OCc4ccc5ccccc5n4)cc3)cc2)nc2ccccc21 (centres unmarked) [Example 6, 4-(4-(2-(1-methyl)benzimidazolylmethoxy)phenyl)-4-(4-(2-quinolylmethoxy)phenyl)pentanoic acid sodium salt] |  | 
